Data published in patent US20080269326A1, “Use of 1-Phenyl-3-Dimethylamino-propane Compounds for Treating Neuropathic Pain” (GRUENENTHAL GmbH, priority 2007, published 2008).

Key:
[1] = system: mononeuropathic pain, withdrawal threshold of rear paw; assay: Mononeuropathy (spinal nerve ligature, SNL), withdrawal threshold by electronic von Frey filament; type: in vivo, rat
Procedure: Male Sprague Dawley rats (140-180g, Janvier, France) are kept under standard conditions (06.00-18.00 hours light, 18.00-06.00 hours darkness; 20°-24° C. room temperature; 35-70% relative atmospheric humidity, tap water and standard feed as desired) in groups of five animals in Macrolon type 4 cages.
Under pentobarbital narcosis (Narcoren, 60 mg/kg i.p., Merial GmbH, Germany) the spinal nerves L5 and L6 are tightly bound unilaterally on the left side with a silk thread (NC silk black, USP 5/0, metric 1, Braun Melsungen A G, Germany) (Kim and Chung, Pain 1992; 50: 355-63). After the operation the animals were allowed to recover for one week and within this time developed a hypersensitivity on the ipsilateral (left) paw. The hypersensitivity to a pressure stimulus can be measured using an electronic von Frey filament (Somedic, Sweden). For this purpose the animals are placed on a grating under a hood. After the animals became accustomed to the surroundings the damaged (ipsilateral, left) and undamaged (contralateral, right) rear paws are subjected to increasing pressure on the underside of the paw until the animal tries to retract the corresponding paw. The median value of five tests defines the withdrawal threshold of a test time point. The animals are tested on both rear paws before and at various times after administration of the substance or vehicle. For each animal the difference between the test value and pre-test for the ipsilateral and contralateral side is determined, and the result is expressed as the mean value (MW) and standard error of the mean (SEM) for the groups consisting in each case of 10 animals. The difference between the mean difference values of the ipsilateral and contralateral side defines the hypersensitivity induced by mononeuropathy. The statistical significance of the effect of a substance is determined on the basis of the difference values compared to the vehicle group for the ipsilateral and contralateral side, by means of bifactorial variance analysis and post hoc analysis according to Bonferroni.

[2] = system: cold allodynia in Bennett animals; assay: Bennett model (chronic constriction injury), cold allodynia on 4° C. cold metal plate; type: in vivo, rat
Procedure: The effectiveness in treating neuropathic pain was investigated in the Bennett model (chronic constriction injury; Bennett and Xie, 1988, Pain 33: 87-107).
(§1) Sprague-Dawley rats weighing 140-160 g are provided with four loose ligatures of the right sciatic nerve under nembutal narcosis. The animals develop a hypersensitivity in the paw innervated by the damaged nerve, which after a healing phase of one week is quantified over about four weeks by means of a 4° C. cold metal plate (cold allodynia). The animals are observed for two minutes on this plate and the number of retractive movements of the damaged paw are measured. The effect of the substance is determined with reference to the base value before application of the substance, at four different times over a period of one hour(15, 30, 45 and 60 minutes after application) and the resultant area under the curve (AUD) as well as the inhibition of cold allodynia at the individual measurement points is expressed in percent effect with reference to the vehicle control (AUD) and to the initial value (individual measurement points). The cohort size is n=10.

[3] = system: tactile allodynia in Chung animals; assay: Chung model (spinal nerve ligature), tactile allodynia, electronic von Frey; type: in vivo; details: Rattus norvegicus, ip, 0.5 h; rats, i.p., 30 minutes after administration
Procedure: Spinal nerve ligatures according to Kim & Chung (1992 Pain 50, 355-363) were applied to the left L5/L6 spinal nerves of male Spraque-Dawley rats. Four to six days after the operation the tactile threshold baseline (withdrawal threshold) was measured on the ipsilateral and contralateral rear paw by an electronic von Frey anaesthesiometer (IITC Life Science, USA). After the test and measurement of the baseline, morphine, gabapentin and some of the aforementioned compounds used according to the invention were administered. The tactile withdrawal thresholds were measured 30 minutes after the administration. The results are expressed as ED50 and % maximal possible effect (% MPE) on the ipsilateral side, in which the baseline is taken as 0% and the withdrawal threshold of a control group is taken as 100% MPE.

[4] = system: cold allodynia in morphine-tolerant Bennett animals; assay: Bennett model cold allodynia in morphine-tolerant animals; type: in vivo, rat
Procedure: as §1
The underlying question is the action of a test substance having a presumably opioid action mechanism in patients who are tolerant or treatment-resistant to morphine. […] The action of test substances in naive (non-morphine-tolerant) animals and morphine-tolerant animals is compared in Table 4. […] Morphine [10 mg/kg i.p.], Compound 9 [10 and 21.5 mg/kg i.p.], Compound 10 [0.46 and 1 mg/kg i.p.], Compound 4 [21.5 mg/kg i.p.] and Compound 11 [21.5 mg/kg i.p.] were tested analogously to Example 1.

**Q.** Which “withdrawal threshold, test value - pre-test value (MW)” value (“withdrawal threshold, test value” below) ([1]; 0.1 mg/kg i.v., Contra, 30 min) does the source give for `CC[C@@H](c1cccc(O)c1)[C@@H](C)CN(C)C` [Compound 9, (1R,2R)-3-(3-dimethylamino-1-ethyl-2-methylpropyl)-phenol] here?
**A.** 0.06 g

**Q.** And the “withdrawal threshold, test value” value ([1]; 0.1 mg/kg i.v., Contra, 60 min)?
**A.** -3.13 g

**Q.** And the “withdrawal threshold, test value” value ([1]; 0.1 mg/kg i.v., Contra, 180 min)?
**A.** -4.30 g

**Q.** And the “withdrawal threshold, test value” value ([1]; 0.1 mg/kg i.v., Ipsi, 30 min)?
**A.** 1.74 g

**Q.** What about the “withdrawal threshold, test value” value ([1]; 0.1 mg/kg i.v., Ipsi, 60 min) of the same compound?
**A.** -0.59 g

**Q.** And the “withdrawal threshold, test value” value ([1]; 0.1 mg/kg i.v., Ipsi, 180 min)?
**A.** -2.24 g

**Q.** And the “withdrawal threshold, test value” value ([1]; 0.316 mg/kg i.v., Contra, 30 min)?
**A.** 0.39 g

**Q.** And the “withdrawal threshold, test value” value ([1]; 0.316 mg/kg i.v., Contra, 60 min)?
**A.** ta −6.20 g

**Q.** And the “withdrawal threshold, test value” value ([1]; 0.316 mg/kg i.v., Contra, 180 min)?
**A.** 2.21 g

**Q.** What about the “withdrawal threshold, test value” value ([1]; 0.316 mg/kg i.v., Ipsi, 30 min) of the same compound?
**A.** 5.78 g

**Q.** What about the “withdrawal threshold, test value” value ([1]; 0.316 mg/kg i.v., Ipsi, 60 min) of the same compound?
**A.** 2.21 g

**Q.** And the “withdrawal threshold, test value” value ([1]; 0.316 mg/kg i.v., Ipsi, 180 min)?
**A.** 1.68 g

**Q.** What about the “withdrawal threshold, test value” value ([1]; 1 mg/kg i.v., Contra, 30 min) of the same compound?
**A.** 2.90 g

**Q.** And the “withdrawal threshold, test value” value ([1]; 1 mg/kg i.v., Contra, 60 min)?
**A.** 2.45 g

**Q.** And the “withdrawal threshold, test value” value ([1]; 1 mg/kg i.v., Contra, 180 min)?
**A.** -6.65 g

**Q.** And the “withdrawal threshold, test value” value ([1]; 1 mg/kg i.v., Ipsi, 30 min)?
**A.** 12.86 g

**Q.** What about the “withdrawal threshold, test value” value ([1]; 1 mg/kg i.v., Ipsi, 60 min) of the same compound?
**A.** 7.09 g

**Q.** What about the “withdrawal threshold, test value” value ([1]; 1 mg/kg i.v., Ipsi, 180 min) of the same compound?
**A.** 2.01 g

**Q.** What about the “withdrawal threshold, test value” value ([1]; 3.16 mg/kg i.v., Contra, 30 min) of the same compound?
**A.** 8.02 g

**Q.** What about the “withdrawal threshold, test value” value ([1]; 3.16 mg/kg i.v., Contra, 60 min) of the same compound?
**A.** 2.85 g

**Q.** And the “withdrawal threshold, test value” value ([1]; 3.16 mg/kg i.v., Contra, 180 min)?
**A.** -0.34 g

**Q.** And the “withdrawal threshold, test value” value ([1]; 3.16 mg/kg i.v., Ipsi, 30 min)?
**A.** 18.43 g

**Q.** And the “withdrawal threshold, test value” value ([1]; 3.16 mg/kg i.v., Ipsi, 60 min)?
**A.** 20.32 g

**Q.** What about the “withdrawal threshold, test value” value ([1]; 3.16 mg/kg i.v., Ipsi, 180 min) of the same compound?
**A.** 11.06 g

**Q.** And the “withdrawal threshold, test value” value ([1]; 10 mg/kg i.v., Contra, 30 min)?
**A.** 31.85 g

**Q.** What about the “withdrawal threshold, test value” value ([1]; 10 mg/kg i.v., Contra, 60 min) of the same compound?
**A.** 10.62 g

**Q.** And the “withdrawal threshold, test value” value ([1]; 10 mg/kg i.v., Contra, 180 min)?
**A.** 4.51 g

**Q.** And the “withdrawal threshold, test value” value ([1]; 10 mg/kg i.v., Ipsi, 60 min)?
**A.** [drawing 7] 19.47 g

**Q.** What about the “withdrawal threshold, test value” value ([1]; 10 mg/kg i.v., Ipsi, 180 min) of the same compound?
**A.** 13.65 g

**Q.** And the “inhibition of the mononeuropathically-induced withdrawal threshold reduction” value ([1]; 10 mg/kg i.v., after 30 minutes, ipsilateral)?
**A.** full inhibition

**Q.** What about the “statistically significant minimal effective dose” value ([1]; i.v., contralateral withdrawal threshold) of the same compound?
**A.** 10 mg/kg

**Q.** What about the “statistically significant minimal effective dose” value ([1]; i.v., ipsilateral rear paw, mononeuropathic rats) of the same compound?
**A.** 1 mg/kg

**Q.** What about the “dosage at which complete inhibition is reached” value ([1]; i.v., mononeuropathic pain model) of the same compound?
**A.** 10 mg/kg

**Q.** What about the “Cold allodynia (% AUD) Naïve animals” value ([2]; 10 mg/kg i.p.) of the same compound?
**A.** 49.3 % AUD

**Q.** And the “Cold allodynia (% AUD) Naïve animals” value ([2]; 21.5 mg/kg i.p.)?
**A.** 53.4 % AUD

**Q.** What about the ED50 ([2]; Rattus norvegicus, ip, rats) of the same compound?
**A.** 13 mg/kg

**Q.** What about the ED50 [3] of the same compound?
**A.** 8.15 mg/kg

**Q.** And the “Cold allodynia (% AUD) Morphine-tolerant animals” value ([4]; 10 mg/kg i.p.)?
**A.** 37.3 % AUD

**Q.** And the “Cold allodynia (% AUD) Morphine-tolerant animals” value ([4]; 21.5 mg/kg i.p.)?
**A.** 36.7 % AUD
